The values that follow are results of earlier work, collected in US20070207952A1, “Long Acting Biologically Active Conjugates” (priority 2003, published 2007).

Where no end group is shown, it is not given here. [ ]: non-standard residue; d: D form. Sta = CC(C)C[C@H](N)[C@@H](O)CC(=O)O

This data set has as its target T1, Human plasma renin (Homo sapiens, UniProt P00797).
T1 construct: plasma renin
T1 sequence (P00797 67-406): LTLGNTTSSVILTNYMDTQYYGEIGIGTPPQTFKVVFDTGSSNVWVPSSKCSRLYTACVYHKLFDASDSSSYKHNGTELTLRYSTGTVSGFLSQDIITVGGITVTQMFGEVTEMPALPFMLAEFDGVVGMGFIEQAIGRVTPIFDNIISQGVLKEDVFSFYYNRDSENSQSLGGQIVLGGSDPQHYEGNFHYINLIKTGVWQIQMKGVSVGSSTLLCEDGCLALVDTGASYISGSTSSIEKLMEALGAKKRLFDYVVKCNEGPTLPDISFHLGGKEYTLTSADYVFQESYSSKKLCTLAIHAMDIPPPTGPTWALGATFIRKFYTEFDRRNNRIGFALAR
The following applies: literature values; cited from earlier work.
The term IC50 denotes the point on the concentration scale where inhibition reaches its midpoint. With “Boc-Phe-His-Cha-(CH2NH)Val-NH-2(S)-Me(Bu)”, the IC50 was 86 nM.

As for Ac-His-Pro-Phe-His-ACHPA---Leu-Phe-NH2, the concentration for half-maximal inhibition (IC50) is 0.5 nM.

Regarding PHPFH[Sta]IF-NH2, the half-inhibitory concentration (IC50) was 3 nM.

For Boc-Phe-His-Sta---Ile-AMP, the IC50 is 6 nM.

Regarding “Boc-His-Pro-Phe-His-Leu(CH(OH)CH2)Val-Ile-His-OH”, the IC50 was 0.7 nM.

As for Boc-Phe-His-ACHPA---Leu-AMB, the IC50 is 1 nM.
